Laboratory results reported in patent USRE47193E1, “Selectively substituted quinoline compounds” (EISAI R&D MANAGEMENT CO., LTD., priority 2013, dated 2019).

Legend:
[1] = molecular target: T1, TLR9 (Homo sapiens, UniProt Q9NR96); experiment: HEK-293 human TLR9 NF-kappaB luciferase reporter assay (CpG-ODN); format: cell-based; parameters: stably and individually express human TLR4, TLR7 or TLR9 full-length ORF cDNAs; expressed in transfected cells; host or cells: HEK-293 (ATCC) with ELAM-1 NF-kappaB luciferase reporter; conditions: ligand CpG-ODN, analyte NFkB-luciferase
T1 sequence (Q9NR96 26-1032): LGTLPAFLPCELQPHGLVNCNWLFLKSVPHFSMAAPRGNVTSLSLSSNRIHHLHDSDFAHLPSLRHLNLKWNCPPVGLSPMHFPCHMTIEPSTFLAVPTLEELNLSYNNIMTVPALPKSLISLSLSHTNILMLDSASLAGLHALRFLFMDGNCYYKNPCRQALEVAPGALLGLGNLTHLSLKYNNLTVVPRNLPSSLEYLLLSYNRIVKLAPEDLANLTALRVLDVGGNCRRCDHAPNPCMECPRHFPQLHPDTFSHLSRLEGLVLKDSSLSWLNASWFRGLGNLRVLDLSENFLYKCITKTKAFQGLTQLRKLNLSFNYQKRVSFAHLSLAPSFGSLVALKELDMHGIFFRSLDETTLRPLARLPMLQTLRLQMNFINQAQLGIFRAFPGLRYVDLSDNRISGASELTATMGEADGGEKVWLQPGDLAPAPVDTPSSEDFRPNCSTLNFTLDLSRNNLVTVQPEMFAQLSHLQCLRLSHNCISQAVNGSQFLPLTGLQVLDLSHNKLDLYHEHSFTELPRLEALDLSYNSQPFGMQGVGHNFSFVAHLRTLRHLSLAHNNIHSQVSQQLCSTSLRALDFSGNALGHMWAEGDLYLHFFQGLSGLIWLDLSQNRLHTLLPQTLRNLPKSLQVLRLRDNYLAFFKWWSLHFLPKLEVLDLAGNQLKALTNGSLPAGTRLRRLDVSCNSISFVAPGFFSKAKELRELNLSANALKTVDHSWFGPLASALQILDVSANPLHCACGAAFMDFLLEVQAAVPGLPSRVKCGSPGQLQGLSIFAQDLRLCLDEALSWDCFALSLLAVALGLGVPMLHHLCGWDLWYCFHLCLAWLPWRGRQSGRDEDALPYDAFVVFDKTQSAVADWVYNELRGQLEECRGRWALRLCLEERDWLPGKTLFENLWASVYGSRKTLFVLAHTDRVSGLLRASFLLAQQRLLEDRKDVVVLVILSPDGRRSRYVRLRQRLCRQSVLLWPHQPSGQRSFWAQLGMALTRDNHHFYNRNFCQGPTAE
Protocol: (§1) To identify potent and selective TLR7/8 compounds, analogs were initially screened across a cell-based panel of human TLR4, TLR7, and TLR9 reporter lines (see Pharmacology Materials and Methods for more details). […] Certain compounds were advanced into the short-term in vivo (STIV) assay to determine dose-dependent activity and duration-of-action against mouse TLR7 (see Pharmacology Materials and Methods for more details). Select compounds were then evaluated for impact in one or more of the following mouse lupus disease models: BXSB-Yaa, NZBx-NZW, and Pristane DBA/1.
(§2) HEK-293 cells (ATCC) were engineered to stably express a NF-kappaB transcription factor inducible E-selectin (ELAM-1) luciferase reporter derived from the plasmid pGL3 (Promega) containing base pairs −2241 bp to −254 bp from the promoter of the human E-selectin gene (Accession No. NM_000450). These cells were then subsequently engineered to stably and individually express human TLR4, TLR7 or TLR9 full-length ORF cDNAs. Human TLR4 cDNA (Accession No. NM_138554) was cloned into pcDNA 3.0 expression vector (Invitrogen). TLR4 transfected cells were also engineered to express human MD-2 co-receptor [MD-2 cDNA (Accession No. NM_015364) was cloned into the pEF-BOS vector] and were supplemented with 10 nM soluble CD14 (R&D Systems) in the media to optimize LPS responsiveness. […]

[2] = molecular target: T2, Human TLR4 (Homo sapiens, UniProt O00206); experiment: HEK-293 human TLR4 NF-kappaB luciferase reporter assay (LPS); format: cell-based; conditions: ligand LPS, analyte NFkB-luciferase
T2 construct: stably and individually express human TLR4, TLR7 or TLR9 full-length ORF cDNAs; expressed in transfected cells; host or cells: HEK-293 (ATCC) with ELAM-1 NF-kappaB luciferase reporter
Protocol: as §1, §2

T2 sequence (O00206 24-839): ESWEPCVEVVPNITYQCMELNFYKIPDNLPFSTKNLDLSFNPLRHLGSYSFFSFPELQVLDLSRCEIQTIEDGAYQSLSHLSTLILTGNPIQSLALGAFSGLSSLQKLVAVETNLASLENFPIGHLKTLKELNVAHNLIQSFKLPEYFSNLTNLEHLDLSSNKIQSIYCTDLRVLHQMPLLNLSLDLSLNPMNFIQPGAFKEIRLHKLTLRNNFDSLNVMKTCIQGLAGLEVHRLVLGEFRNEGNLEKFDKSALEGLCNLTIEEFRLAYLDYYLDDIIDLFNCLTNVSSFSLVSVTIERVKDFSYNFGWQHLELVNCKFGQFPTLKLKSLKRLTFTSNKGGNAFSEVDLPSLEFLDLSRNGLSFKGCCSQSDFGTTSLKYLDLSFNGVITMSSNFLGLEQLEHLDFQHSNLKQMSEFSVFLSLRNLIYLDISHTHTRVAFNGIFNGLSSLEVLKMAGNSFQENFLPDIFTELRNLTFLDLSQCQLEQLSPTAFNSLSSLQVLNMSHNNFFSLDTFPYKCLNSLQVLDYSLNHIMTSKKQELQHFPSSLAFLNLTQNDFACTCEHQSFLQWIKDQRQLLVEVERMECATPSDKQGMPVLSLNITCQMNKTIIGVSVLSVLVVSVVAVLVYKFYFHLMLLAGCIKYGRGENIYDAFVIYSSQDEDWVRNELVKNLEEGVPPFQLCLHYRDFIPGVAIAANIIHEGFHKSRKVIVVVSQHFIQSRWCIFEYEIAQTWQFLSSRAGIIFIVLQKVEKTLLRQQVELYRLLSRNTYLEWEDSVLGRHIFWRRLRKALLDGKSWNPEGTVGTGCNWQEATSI
T2 sequence (Q9Y6Y9 19-160 partner): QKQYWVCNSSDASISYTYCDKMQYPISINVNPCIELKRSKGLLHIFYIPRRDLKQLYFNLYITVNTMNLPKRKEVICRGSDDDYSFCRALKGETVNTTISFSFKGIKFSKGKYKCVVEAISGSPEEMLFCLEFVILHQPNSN

Work on `C[C@@H]1CN(c2ccc(C#N)c3ncccc23)C[C@H](C(=O)N[C@H]2CNC[C@H]2F)O1.Cl` [ER-899742, (2R,6R)-4-(8-cyanoquinolin-5-yl)-N-[(3S,4R)-4-fluoropyrrolidin-3-yl]-6-methylmorpholine-2-carboxamide hydrochloride] yielded an IC50 [1] greater than 10 µM and an IC50 [2] greater than 10 µM.
